In patent US20160122313A1, “COMPOSITIONS AND METHODS FOR THE TREATMENT OF DIABETES” (priority 2014, published 2016):

Columns and labels:
Diabetic Rats = experiment: Effect on serum glucose, body weight and HbA1c in STZ/nicotinamide-induced type 2 diabetic rats, 4 weeks treatment; type: in vivo, rat; conditions: diabetic rats (STZ 65 mg/kg + NIC 150 mg/kg i.p.), 30 mg/kg/day; for Glucose: serum glucose
Description: (§1) Effect of Nateglinide alone and Formula I (1-2) on Serum Glucose, Body Weights and HbAlc in Non-Diabetic and Diabetic Rats:
Type 2 Diabetes was induced in overnight fasted rats by a single intraperitoneal injection of 65 mg/kg Streptozotocin (STZ), 15 min after the i.p administration of 150 mg/kg of Nicotinamide (NIC). After 7 days following STZ and NIC administration, blood was collected from tail vein and serum samples were analyzed for blood glucose. Animals showing fasting blood glucose higher than 300 mg/dl were considered as diabetic and were used for the study.
(§2) Methods: Animals were divided in to following groups, each group containing 6 animals and the treatment period for whole study was 4 weeks.
Group 4: Diabetic control, single injection of STZ (65 mg/kg, i.p) and NIC (150 mg/kg, i.p, DB-CON).
Group 5: Diabetic rats (DB) treated with NAT (30 mg/kg/day, DB-NAT).
Group 6: Diabetic rats treated with Formula I (1-2) (30 mg/kg/day, p.o)
(§3) Effect of Nateglinide (30 mg/kg/day, p.o) and Formula I (30 mg/kg/day, p.o) on Changes in Body Weight, Serum Glucose and HbAlc Level in Nondiabetic and Diabetic Rats.

Non-Diabetic Rats = experiment: Effect on serum glucose, body weight and HbA1c in nondiabetic rats, 4 weeks treatment; type: in vivo, rat; conditions: 30 mg/kg/day p.o.; for Glucose: serum glucose
Description: as §1, §2
Group 1: Nondiabetic (ND) control, received CMC as vehicle (1 ml/kg/day, p.o, NDCON).
Group 2: Nondiabetic group treated with Nateglinide (NAT) (30 mg/kg/day, p.o, ND-NAT).
Group 3: Nondiabetic group treated with Formula I (1-2) (30 mg/kg/day, p.o)
as §3

Row | SMILES | (%, HbA1c) (Diabetic Rats) | Glucose (Diabetic Rats) [mg/dL] | (%, HbA1c) (Non-Diabetic Rats) | Body weight (gm) (Non-Diabetic Rats) | Glucose (Non-Diabetic Rats) [mg/dL] | Body weight (gm) (Diabetic Rats)
1 | CC(C)[C@H]1CCC[C@H](C(=O)N[C@H](Cc2ccccc2)OC(=O)OC(=O)CCCC[C@]2(C)CCSS2)C1 [FORMULA I] | 4.01 +/− 0.72% | 99.1 ± 12.1 | 4.21 +/− 0.67% | 265.1 +/− 9.3 gm | 77.87 ± 9.67 | 
2 | CC(C)[C@H]1CC[C@H](C(=O)N[C@H](Cc2ccccc2)C(=O)O)CC1 [NAT, Nateglinide] | 6.78 +/− 0.98% | 170.7 ± 13.21 | 5.04 +/− 0.30% | 224.0 +/− 7.23 gm | 70.21 ± 5.6 | 219.8 +/− 50.28 gm
